Data taken from patent US20080153800A1, “NOVEL CRYSTALLINE COMPOUND” (AstraZeneca AB, priority 2006, published 2008).

Columns and labels:
[1] = Conversion of the crystalline form in aqueous media; type: physicochemical
From the text: International patent application PCT/GB2006/002471 (WO2007/007041) discloses the Agent in 2 different crystalline forms (Example 39k). […] This form will hereinafter be referred to as Form A′. The preparation of Form A is also described in the Example hereinafter.
This form of the Agent will hereinafter be referred to as Form B.

[2] = Competitive slurries of Form A and Form B in a range of solvents; type: physicochemical
From the text: Form B also has a much higher melting endotherm.

Compound	conversion to other forms in aqueous media [1]	relative stability of crystalline forms in competitive slurries [2]
CC(C)Oc1cc(Oc2cnc(C(=O)N3CCC3)cn2)cc(C(=O)Nc2cc[nH]n2)c1 [Form A, 3-{[5-(Azetidin-1-ylcarbonyl)pyrazin-2-yl]oxy}-5-[(1-methylethyl)oxy]-N-1H-pyrazol-3-ylbenzamide]	convert to the amorphous form	–
CC(C)Oc1cc(Oc2cnc(C(=O)N3CCC3)cn2)cc(C(=O)Nc2cc[nH]n2)c1 [Form A′, 3-{[5-(azetidin-1-ylcarbonyl)pyrazin-2-yl]oxy}-5-[(1-methylethyl)oxy]-N-1H-pyrazol-3-ylbenzamide]	convert to the amorphous form	–
CC(C)Oc1cc(Oc2cnc(C(=O)N3CCC3)cn2)cc(C(=O)Nc2cc[nH]n2)c1 [Form B, 3-{[5-(azetidin-1-ylcarbonyl)pyrazin-2-yl]oxy}-5-[(1-methylethyl)oxy]-N-1H-pyrazol-3-ylbenzamide]	does not significantly convert to other forms	most stable form
